Reference: patent publication US6573063B2, “Methods and systems for assessing biological materials using optical and spectroscopic detection techniques” (Cytoscan Sciences, LLC, priority 1995, dated 2003)

Assays:
hippocampal slices = assay: Spontaneous interictal-like bursts in hippocampal slices after additions to the bathing medium; format: cell-based, rat; settings: 4 slices
Description: (§1) Sprague-Dawley rats (male and female; 25 to 35 days old) were prepared as described in Aghajanian, A. K. and Rasmussen, K., Synapse 31:331, 1989; and Buckmaster, P. S., Strowbridge, B. W., Schwartzdroin, P. A., J. Neurophysiol. 70:1281, 1993. In most hippocampal slice experiments, simultaneous extracellular field electrode recordings were obtained from CA1 and CA3 areas. For stimulation-evoked afterdischarge (13 slices, 8 animals), the concentration of Mg^2+ in the bathing medium was reduced to 0.9 mM. A bipolar tungsten stimulating electrode was placed on the Schaffer collaterals to evoke synaptically driven field responses in CA1; stimuli consisted to 100 to 300-μs-duration pulses at an intensity of four times population-spike threshold. After discharges were evoked by a 2-s train of such stimuli delivered at 60 Hz. […] In all treatments, perfusion with furosemide-containing medium was begun after a consistent level of bursting had been established.

[1] = test system: hippocampal tissue slice (CA1, Schaffer collateral stimulation); assay: Stimulation-evoked afterdischarge in acute hippocampal slice: extracellular field recording and imaging of intrinsic optical signals; format: cell-based, rat
Description: as §1
For imaging of intrinsic optical signals, the tissue was illuminated with a beam of white light (tungsten filament light and lens system; Dedotec USA, Lodi, N.J.) directed through the microscope condenser. The light was controlled and regulated (power supply: Lambda Electronics, Melville, N.Y.) to minimize fluctuations and filtered (695 nm long-pass) so that the slice was transilluminated with long wavelengths (red). Image frames were acquired with a charge-coupled device camera (Dage-MTI) at 30 Hz and were digitized at 8 bits with a spatial resolution of 512 by 480 pixels by means of an Imaging Technology Series 151 imaging system; gains and offsets of the camera-control box and the analog-to-digital board were adjusted to optimize the sensitivity of the system. Imaging hardware was controlled by a 486-PC-compatible computer running software written by D. Hochman and developed with commercially available software tools (Microsoft's C/C++ Compiler and Imaging Technology's ITEX library). To increase signal-to-noise ratio, an averaged image was composed from 16 individual image-frames, integrated over 0.5 s and averaged together. An experimental series typically involved the continuous acquisition of a series of averaged images over a several minute time period; at least 10 of these averaged images were acquired as control images before stimulation. Pseudocolored images were calculated by subtracting the first control image from subsequently acquired images and assigned a color lookup table to the pixel values. For these images, usually a linear low-pass filter was used to remove high-frequency noise and a linear-histogram stretch was used to map the pixel values over the dynamic range of the system. All operations on these images were linear so that quantitative information was preserved.

[2] = test system: brain tumor and normal tissue; assay: Optical imaging of brain tumor through the intact cranium after intravenous dye injection
[3] = 20 minutes of perfusion with medium containing 2.5 mM furosemide
[4] = following treatment with furosemide (FIG. 3E)

For `Nc1ccncc1` [4-AP], the “spontaneous interictal-like bursts, average” value (hippocampal slices; 200 to 300 μM 4-AP in bathing medium, 2 animals) was 33 bursts/min.
`CN1CCc2cc3c(cc2[C@H]1[C@@H]1OC(=O)c2c1ccc1c2OCO1)OCO3` [bicuculine] was tested, and the “spontaneous interictal-like bursts, average” value (hippocampal slices; 50 to 100 bicuculine in bathing medium, 3 animals) was 14 bursts/min.
With `NS(=O)(=O)c1cc(C(=O)O)c(NCc2ccco2)cc1Cl` [furosemide] the “field response to the test pulse” value [1, 3] was “hyperexcitable field response (multiple population spikes)”, the stimulation-evoked optical changes [1, 3] was “blocked” and the electrical afterdischarge activity ([1]; 20 minutes of perfusion with medium containing 2.5 mM furosemide, 2 s stimulation at 60 Hz) was “blocked”. For the same compound, the “response pattern after washout” value ([1]; following 45 minutes of perfusion with normal bathing medium) was “restoration of the initial response pattern”, the “epileptiform activity during electrical stimulation” value [1, 4] was “blocks” and the “intrinsic optical signal during electrical stimulation” value [1, 4] was “blocks”.
For `CC1(C)C(/C=C/C=C/C=C/C=C2\N(CCCCS(=O)(=O)O)c3ccc4ccccc4c3C2(C)C)=[N+](CCCCS(=O)(=O)[O-])c2ccc3ccccc3c21` [indocyanine green], the “dye distribution in normal and tumor tissue” value ([2]; five seconds after dye injection) was “profuse through both normal and tumor tissue”, the “dye in normal tissue” value ([2]; one minute after dye injection) was “cleared the dye” and the “dye in tumor region” value ([2]; one minute after dye injection) was “still retained”.
